Laboratory results: patent US20090012152A1, “Use of Tetramic Acid Derivatives for Controlling Insects from the Genus of the Plane Lice (Sternorrhyncha)” (Bayer CropScience Aktiengesellschaft, priority 2005, published 2009)

Tests used:
Format in all cases: in vivo
Psylla piri [1] = assay: Example 6: pear trees treated against Psylla piri; settings: larvae on shoots, % a.i.: amitraz 0.05, I-9, I-2, I-1 0.096; for Kill (%) 3 d: 3 d after last of two treatments; for Kill (%) 10 d: 10 d after last of two treatments; for Kill (%) 20 d: 20 d after last of two treatments
Experimental: In three replications, in each case 4 about 4-year-old pear trees of the cultivar “Williams Christ” are treated against Psylla piri. Two applications are carried out at an interval of 11 days using a motor-operated barrow-mounted sprayer. Here, the active compounds Example (I-9) (240 SC), Example (I-2) (240 SC) and Example (I-1) (240 SC) are tested against the commercial standard Amitraz (200 EC) at the stated amounts. The application rate is 2000 l of water/ha.
Evaluation is carried out 3, 10 and 20 days after the last treatment by rating the kill of the larvae in percent on the shoots.

Saissetia oleae = assay: Example 13: orange trees treated against Saissetia oleae; settings: nymphs on leaves, g a.i./ha/m crown height: buprofezin 500, I-4 72, I-8 30
Experimental: In three replications, in each case two about 8-year-old orange trees are treated against Saissetia oleae. Here, the active compounds Example (I-4) (240 SC) and Example (I-8) (250 SC) in a tank mix with 0.2% a.i. of rapeseed oil methyl ester (500 EW) at the stated application rate are tested against the commercial standard buprofezin in a tank mix with 0.4% a.i. of Oliocin (800 EW) at the stated application rate. The application is carried out using a motor-operated knapsack sprayer. The application rate is 3000 l of water/ha. Two treatments are carried out, at an interval of 29 days.
Evaluation is carried out 24 and 44 days after the last treatment by rating the kill of the nymphs on the leaves.

Bemisia argentifolii [2] = assay: Example 36: aubergine plants (Ryoma) treated against Bemisia argentifolii; settings: nymphs on leaves, % a.i.: pymetrozine 0.0125, I-4 0.072, I-8 0.06; for Kill (%) 13 d: 13 d after treatment; for Kill (%) 20 d: 20 d after treatment; for Kill (%) 27 d: 27 d after treatment
Experimental: In three replications, in each case four aubergine plants of the cultivar “Ryoma” are treated against Bemisia argentifolii. The application is carried out using a motor-operated knapsack sprayer. Here, the active compounds Example (I-4) and Example (I-8), in a tank mix with 0.2% a.i. of rapeseed oil methyl ester (500 EW), and the commercial standard pymetrozine (25 WP) are tested at the stated application rates. The application rate is 3200 l of water/ha.
Evaluation is carried out 13, 20 and 27 days after the treatment by rating the kill of the nymphs on the leaves.

Nasonovia ribisnigri = assay: Example 42: head lettuce treated against Nasonovia ribisnigri; settings: on plants, g a.i./ha: Pirimor 150, I-4 48, I-8 42
Experimental: In four replications, plots of a size of 5 m^2 with head lettuce are, two weeks after transplantation, treated against Nasonovia ribisnigri. The application is carried out using a knapsack sprayer operated with pressurized air. Here, the active compounds Example (I-4) (240 SC) and Example (I-8) (240 SC) are, in a tank mix with 0.2% a.i. of rapeseed oil methyl ester (500 EW), tested against the commercial standard Pirimor, at the stated application rates. The application rate is 500 l of water/ha.
Evaluation is carried out 7, 14 and 26 days after the treatment by rating the kill of the animals on the plants.

Myzus persicae [3] = assay: Example 50: tomatoes treated against Myzus persicae; settings: nymphs on leaves, g a.i./ha: acetamiprid 50, I-9 36, I-4 48
Experimental: In two replications, plots of a size of about 43 m^2 with tomatoes of the cultivar “Yaqui” are treated against Myzus persicae. The application is carried out using a motor-operated knapsack sprayer. Here, the active compounds Example (I-9) (240 SC) and Example (I-4) (240 SC), in a tank mix with 0.1% a.i. of rapeseed oil methyl ester (500 EW), and the standard acetamiprid (20 WP) are applied at the stated application rates. The application rate is 208 l of water/ha.
Evaluation is carried out 3 and 10 days after the treatment by rating the kill of the nymphs on the leaves.

Psylla piri [4] = assay: Example 5: pear trees treated against Psylla piri; settings: nymphs on shoots, g a.i./ha/m crown height: amitraz 266, I-4 72
Experimental: In three replications, pear trees of the cultivar “Williams Christ” are treated against Psylla piri. Application is shortly before the eggs hatch. The application is carried out using a barrow-mounted sprayer operated with pressurized air. Here, the active compound Example (I-4) (240 SC) is tested in a tank mix with 0.1% a.i. rapeseed oil methyl ester (500 EW) at the stated amount against the standard amitraz (200 EC) at the stated amount. The application rate is 1000 l of water/ha.
Evaluation is carried out 7, 14 and 21 days after the treatment by rating the kill of the nymphs on the shoots.

Paratrioza cockerelli = assay: Example 7: bell peppers treated against Paratrioza cockerelli; settings: nymphs on leaves, g a.i./ha: imidacloprid 52.6, I-4 72, dimethoate 561
Experimental: In four replications, plots of a size of about 7 m^2 with bell peppers of the cultivar “Jupiter” are treated against Paratrioza cockerelli. The application is carried out with a knapsack sprayer operated with pressurized air. Here, the active compound Example (I-4) (240 SC) is applied in a tank mix with 0.2% a.i. of rapeseed oil methyl ester (500 EW) and the commercial standards imidacloprid 192 SC and dimethoate (480 EC) are applied in a tank mix with 0.125% Induce at the stated application rates. The application is carried out with an application rate of 467 l of water/ha.
Evaluation is carried out 7 and 15 days after the treatment by rating the kill of the animals (nymphs) on the leaves.

Bemisia argentifolii [5] = assay: Example 37: cantaloupe melons treated against Bemisia argentifolii; settings: nymphs on leaves, g a.i./ha: endosulfan 1120, I-4 48
Experimental: In four replications, plots of a size of about 39 m^2 with cantaloupe melons of the cultivar “Western Shipper” are treated against Bemisia argentifolii. The application is carried out using a knapsack sprayer operated with pressurized air. Here, the active compound Example (I-4) (240 SC), in a tank mix with 0.2 a.i. of rapeseed oil methyl ester (500 EW), and the commercial standard endosulfan (360 EC) are tested at the stated application rates. Two applications are carried out at an interval of 16 days. The application rate is 187 l of water/ha.
Evaluation is carried out 5, 13, 21 and 29 days after the first treatment by rating the kill of the animals (nymphs) on the leaves.

Aulacorthum solani = assay: Example 46: head lettuce treated against Aulacorthum solani; settings: nymphs on plants, g a.i./ha: endosulfan 1120, I-4 48
Experimental: (§1) In four replications, plots of a size of about 33 m^2 with head lettuce of the cultivar “PIC 714” are treated against Aulacorthum solani, Macrosiphum euphorbiae and Myzus persicae. The application is carried out using a tractor sprayer. Here, the active compound Example (I-4) (240 SC), in a tank mix with 0.2% a.i. of rapeseed oil methyl ester (500 EW), is tested against the commercial standard endosulfan (360 EC), at the stated application rates. The application rate is 187 l of water/ha. Two treatments are carried out, at an interval of 22 days.
(§2) Evaluation is carried out 8, 22, 30 and 40 days after the first treatment by rating the kill of the nymphs on the plants.

Macrosiphum euphorbiae = assay: Example 46: head lettuce treated against Macrosiphum euphorbiae; settings: nymphs on plants, g a.i./ha: endosulfan 1120, I-4 48
Experimental: as §1, §2

Myzus persicae [6] = assay: Example 46: head lettuce treated against Myzus persicae; settings: nymphs on plants, g a.i./ha: endosulfan 1120, I-4 48
Experimental: as §1, §2

Pemphigus bursarius = assay: Example 3: chrysanthemums, lettuce root aphid; settings: on roots, drip irrigation 0.1%
Experimental: In three replications, in each case 10 about 5-month-old chrysanthemums (Camilla) in 2 l-vessels are treated against the lettuce root aphid Pemphigus bursarius. Here, the active compound Example (I-4) (240 SC) is applied with a knapsack sprayer operated by pressurized air at the beginning of the infestation at the stated application rates to the above-ground parts of the plants. The soil is covered with a film. The application rate is 600 l of water/ha. 0.1% a.i. of rapeseed oil methyl ester (500 EW) is added to the spray liquor. Omethoate as drip irrigation in a concentration of 0.1% is used for comparison. The application is carried out two days later.
The kill in percent is determined on the roots. […]

Myzus persicae [7] = assay: Example 48: aubergine plants treated against Myzus persicae; settings: on leaves, rate (g of a.i./ha): pymethrozine 0.0125, I-4 0.024
Experimental: In three replications, four aubergine plants (age about 7 months) of the cultivar “Hayabusa” are treated against Myzus persicae. The application is carried out using a motor-operated knapsack sprayer. Here, the active compound Example (I-4) (240 SC), in a tank mix with 0.1% a.i. of rapeseed oil methyl ester (500 EW), and the commercial standard pymethrozine (25 WP) are tested at the stated application rates. The application rate is 3000 l of water/ha.
Evaluation is carried out 7, 14, 21 and 29 days after the treatment by rating the kill of the animals on the leaves.

[8] = 8 d after first of two treatments
[9] = 22 d after first of two treatments
[10] = 30 d after first of two treatments
[11] = 40 d after first of two treatments

**Q.** What does the source list for COC1CCC2(CC1)NC(=O)C(c1cc(C)ccc1Br)=C2OC(=O)C(C)C (stereo not drawn) [Example (I-1)]?
**A.** Kill (%) 3 d (Psylla piri [1]): 90.0%; Kill (%) 10 d (Psylla piri [1]): 96.6%; Kill (%) 20 d (Psylla piri [1]): 95.0%

**Q.** Which “Kill (%) 24 d” value (Saissetia oleae; 24 d after last of two treatments) does the source give for CCOC(=O)OC1=C(c2cc(C)c(Cl)cc2C)C(=O)NC12CCC(OC)CC2 (stereo not drawn) [Example (I-8)] here?
**A.** Its value is 66.5%.

**Q.** What about the “Kill (%) 44 d” value (Saissetia oleae; 44 d after last of two treatments) of the same compound?
**A.** Its value is 56.1%.

**Q.** What about the “Kill (%) 13 d” value (Bemisia argentifolii [2]) of the same compound?
**A.** The value was 99.5%.

**Q.** And the “Kill (%) 20 d” value (Bemisia argentifolii [2])?
**A.** The value was 99.9%.

**Q.** And the “Kill (%) 27 d” value (Bemisia argentifolii [2])?
**A.** The value was 97%.

**Q.** And the “Kill (%) 7 d” value (Nasonovia ribisnigri; 7 d after treatment)?
**A.** Its value is 80.8%.

**Q.** What about the “Kill (%) 14 d” value (Nasonovia ribisnigri; 14 d after treatment) of the same compound?
**A.** The value was 93.6%.

**Q.** And the “Kill (%) 26 d” value (Nasonovia ribisnigri; 26 d after treatment)?
**A.** Its value is 92.7%.

**Q.** With C/C(=N\C#N)N(C)Cc1ccc(Cl)nc1 [acetamiprid, reference compound] as the compound, how does the “Kill (%) 3 d” value (Myzus persicae [3]; 3 d after treatment) read?
**A.** Its value is 78.7%.

**Q.** What about the “Kill (%) 10 d” value (Myzus persicae [3]; 10 d after treatment) of the same compound?
**A.** Its value is 73.5%.

**Q.** Which results are given for Cc1ccc(/N=C/N(C)/C=N/c2ccc(C)cc2C)c(C)c1 [amitraz, reference compound]?
**A.** Kill (%) 7 d (Psylla piri [4]; 7 d after treatment): 100%; Kill (%) 14 d (Psylla piri [4]; 14 d after treatment): 95.2%; Kill (%) 21 d (Psylla piri [4]; 21 d after treatment): 75%; Kill (%) 3 d (Psylla piri [1]): 54.3%; Kill (%) 10 d (Psylla piri [1]): 56.7%; Kill (%) 20 d (Psylla piri [1]): 21.4%

**Q.** How did the “Kill (%) 7 d” value (Paratrioza cockerelli; 7 d after treatment) turn out when CNC(=O)CSP(=S)(OC)OC [dimethoate] was run?
**A.** Its value is 63%.

**Q.** What about the “Kill (%) 15 d” value (Paratrioza cockerelli; 15 d after treatment) of the same compound?
**A.** The value was 0%.

**Q.** Which “Kill (%) 5 d” value (Bemisia argentifolii [5]; 5 d after first of two treatments) does the source give for O=S1OCC2C(CO1)C1(Cl)C(Cl)=C(Cl)C2(Cl)C1(Cl)Cl (stereo not drawn) [endosulfan, reference compound] here?
**A.** The value was 0%.

**Q.** What about the “Kill (%) 13 d” value (Bemisia argentifolii [5]; 13 d after first of two treatments) of the same compound?
**A.** The value was 100%.

**Q.** And the “Kill (%) 21 d” value (Bemisia argentifolii [5]; 21 d after first of two treatments)?
**A.** The value was 80.8%.

**Q.** What about the “Kill (%) 29 d” value (Bemisia argentifolii [5]; 29 d after first of two treatments) of the same compound?
**A.** Its value is 66.7%.

**Q.** And the “Kill (%) 8 d” value (Aulacorthum solani; [8])?
**A.** Its value is 96%.

**Q.** And the “Kill (%) 22 d” value (Aulacorthum solani; [9])?
**A.** The value was 88%.

**Q.** And the “Kill (%) 30 d” value (Aulacorthum solani; [10])?
**A.** The value was 98%.

**Q.** And the “Kill (%) 40 d” value (Aulacorthum solani; [11])?
**A.** The value was 53%.

**Q.** And the “Kill (%) 8 d” value (Macrosiphum euphorbiae; [8])?
**A.** The value was 100%.

**Q.** What about the “Kill (%) 22 d” value (Macrosiphum euphorbiae; [9]) of the same compound?
**A.** The value was 100%.

**Q.** And the “Kill (%) 30 d” value (Macrosiphum euphorbiae; [10])?
**A.** The value was 99%.

**Q.** What about the “Kill (%) 40 d” value (Macrosiphum euphorbiae; [11]) of the same compound?
**A.** The value was 96%.

**Q.** And the “Kill (%) 8 d” value (Myzus persicae [6]; [8])?
**A.** Its value is 95%.

**Q.** And the “Kill (%) 22 d” value (Myzus persicae [6]; [9])?
**A.** Its value is 61%.

**Q.** And the “Kill (%) 30 d” value (Myzus persicae [6]; [10])?
**A.** Its value is 100%.

**Q.** Which results are given for CNC(=O)CSP(=O)(OC)OC [omethoate, reference compound]?
**A.** Kill (%) 7 d (Pemphigus bursarius; 7 d): 20 (7 d) %; Kill (%) 15 d (Pemphigus bursarius; 15 d): 70.6 (15 d) %

**Q.** What does the source list for CC1=NNC(=O)N(/N=C/c2cccnc2)C1 [pymetrozine, reference compound]?
**A.** Kill (%) 13 d (Bemisia argentifolii [2]): 79%; Kill (%) 20 d (Bemisia argentifolii [2]): 74%; Kill (%) 27 d (Bemisia argentifolii [2]): 75%; Kill (%) 7 d (Myzus persicae [7]; 7 d after treatment): 99.9%; Kill (%) 14 d (Myzus persicae [7]; 14 d after treatment): 99%; Kill (%) 21 d (Myzus persicae [7]; 21 d after treatment): 95%; Kill (%) 29 d (Myzus persicae [7]; 29 d after treatment): 73%
